In publication PMC9864008, “Novel Black Seed Polysaccharide Extract-g-Poly (Acrylate) pH-Responsive Hydrogel Nanocomposites for Safe Oral Insulin Delivery: Development, In Vitro, In Vivo and Toxicological Evaluation” (Pharmaceutics, 2022):

Legend:
[1] = cited from earlier work
Excerpt: Humulin® R U-100 (containing human insulin with the strength 100 units/mL) is a sterile, colourless and aqueous solution formulation. It is a short-acting polypeptide hormone produced by an Escherichia coli strain obtained by using recombinant DNA technology. Firstly, it controls blood sugar by inhibiting hepatic glucose production, and secondly, it stimulates glucose uptake from peripheral skeletal muscles and fat cells. When administered subcutaneously (SC), it starts showing therapeutic response within 30 min and its effect lasts up to 8h, with the dose in the range of 0.05–0.4 units/kg. W ...

[2] = rabbit, in vivo
Procedure: After diabetes induction, the rabbits were placed into 5 groups (n = 6) randomly. The first group was orally administered with ground Ins-BA hydrogel (10 IU/kg) by an oral gavage needle with 5 mL of water to ensure complete dose administration. The second group was given orally the ground Ins-Mmt-BA hydrogel NC (10 IU/kg). The third group, acting as a positive control, was subcutaneously (SC) injected with standard Humulin-R® insulin (5 IU/kg). The fourth group was orally administered with insulin solution (10 IU/kg). The fifth group, acting as a negative control was administered with blank hydrogel. Blood samples were taken at specified intervals (0, 1, 2, 3, 4, 6, 8, 10, 12, 16, 20, 22 and 24 h) from the jugular vein and collected in EDTA containing sample collection tubes. The blood samples were then centrifuged at 3500 rpm for 15 min and separated plasma samples were stored at –20 °C for further detection of insulin by the HPLC method. At the same intervals, blood samples were also checked for blood glucose levels by a glucometer for observing the pharmacodynamic effect of the administered dosage forms [8].
For pharmacokinetic evaluation, a previously developed HPLC method for insulin detection in plasma was used with slight modifications [37]. The HPLC system (Hitachi, Tokyo, Japan) comprising a Gilson delivery pump with a 6-valved sample injection port fitted with a 20 µL sample loop, A UV-visible detector, thermostat column and chromato-integrator were used for sample analysis. The RP-C18 (150 × 4.60 mm ID, 5 µm) analytical column (Phenomenex, Torrance, CA, USA) was used. The mobile phase was prepared by 0.2 M Na2SO4 solution with pH adjusted to 2.3 with orthophosphoric acid mixed with acetonitrile (74:26) and filtered through 0.5 µm membrane filters and sonicated for 10 min to remove dissolved gas bubbles. The stock solution of insulin at 140 µg/mL strength was made in PBS. The serial dilutions of insulin solution (3.5 µg/mL to 140 µg/mL) after filtering through a 0.2 µm membrane filter were injected into a chromatographic column to find the linearity curve to develop a method for insulin detection. The linearity curve with the same serial dilutions of insulin in plasma was also determined. For sample preparation from collected plasma, 200 µL of thawed plasma (collected at different intervals) was mixed with 800 µL of n-hexane:dichloromethane (1:1). The mixture was centrifuged for 10 min at 3500 rpm (Hitachi Zentrifugen EBA 20, Hitachi Ltd., Tokyo, Japan). The supernatant with extracted insulin was used after filtering through a 0.22 µm membrane filter (Sartorius, Göttingen, Germany) for injection into the HPLC system. […]

[3] = tested on: diabetic male albino rabbits; test: In vivo pharmacodynamics: blood glucose level in alloxan-induced diabetic rabbits; parameters: species or system rabbit; settings: for Blood glucose level (% of initial, % BGL) at maximum decrease: n = 6, oral 10 IU/kg or SC 5 IU/kg, SC standard within first 3 h, Ins-BA hydrogel at 8 h, Ins-Mmt-BA hydrogel NC at 20 h
Procedure: A crossover study was designed to evaluate the insulin intestinal absorption and its release pattern over time from the developed BA hydrogels versus Ins-Mmt-BA hydrogel NCs. For this purpose, under the approval of IREC vide notification number IREC-2020-22, strictly following OECD guidelines, a total of 30 healthy male albino rabbits (≥2 kg weight) were taken. All animals were exposed to 12 h light and darkness cycles for 7 days to acclimatize with ambient atmosphere. For diabetes induction, all rabbits were administered alloxan monohydrate injection (Sigma-Aldrich, Germany) in a single intraperitoneal dose of 150 mg/kg. A 5% glucose solution was administered ad libitum for 24 h to avoid alloxan-induced hypoglycemia. To confirm diabetes induction all, animals’ blood was withdrawn daily from the ear marginal vein for checking blood glucose levels with the help of a glucometer and glucose strips (ACCU-CHEK®, Roche, Basel, Switzerland) for 10 days. Rabbits displaying fasting blood glucose levels higher than 150 mg/dL were considered as diabetic.

[4] = intravenous, dose 0.1–0.2 units/kg
[5] = subcutaneous, dose 0.05–0.4 units/kg

Substance	Duration of effect after IV administration [1, 4]	Start of pharmacologic effect after IV administration [1, 4]	Duration of effect after SC administration [1, 5]	Start of therapeutic response after SC administration [1, 5] [min]	Cl [2] [mL/h]	Vd [2] [mL]	t1/2 [2] [h]	tmax [2] [h]	Blood glucose level (% of initial, % BGL) at 8 h ([3]; n = 6, SC 5 IU/kg, 8 h interval) [%]	Blood glucose level (% of initial, % BGL) at maximum decrease [3]
SC insulin standard: standard Humulin-R human insulin injection, 100 IU/mL, given subcutaneously	up to 4 h	10–15 min	up to 8 h	≤ 30	13.361	67.326	3.493	3	59.67	13.55%
oral insulin solution: insulin solution administered orally (10 IU/kg)										no significant decrease in % BGL
